Data: US20050159427A1, “N-acylsulfonamide apoptosis promoters” (priority 2003, published 2005)

Legend:
MDA-MB-435 = experiment: Tumor cell viability (TABLE 1); assay type: cell-based; conditions: Homo sapiens, MDA-MB-435, 48 h, read-out: EC50 (50% reduction in cell viability)
OVCAR-4 = experiment: Tumor cell viability (TABLE 1); assay type: cell-based; conditions: Homo sapiens, read-out: EC50 (50% reduction in cell viability); OVCAR-4 (Ovarian); serum-free conditions, 48 hour treatment; mean ± SEM
786-0 = experiment: Tumor cell viability (TABLE 1); assay type: cell-based; conditions: Homo sapiens, read-out: EC50 (50% reduction in cell viability); 786-0 (Renal); serum-free conditions, 48 hour treatment; mean ± SEM
SuDHL4 = SuDHL4 model of B-cell follicular lymphoma; assay type: in vivo
[1] = tested on: A549 human non-small cell lung carcinoma cells; experiment: Paclitaxel combination on A549 cells; assay type: cell-based; conditions: A549 cells

## CN(C)CC[C@H](CSc1ccccc1)Nc1ccc(S(=O)(=O)NC(=O)c2ccc(N3CCN(Cc4ccccc4-c4ccc(Cl)cc4)CC3)cc2)cc1[N+](=O)[O-] [EXAMPLE 2, N-(4-(4-((4′-chloro(1,1′-biphenyl)-2-yl)methyl)piperazin-1-yl)benzoyl)-4-(((1R)-3-(dimethylamino)-1-((phenylsulfanyl)methyl)propyl)amino)-3-nitrobenzenesulfonamide]
MDA-MB-435
  EC50: 2400 nM
OVCAR-4
  EC50: 22 ± 3 µM
786-0
  EC50: 2900 ± 100 nM
SuDHL4
  activity in follicular lymphoma model: significant activity
[1]
  increase in efficacy of paclitaxel when administered with the compound: about 4.4 fold
